In ChEMBL document CHEMBL4118205, “Design, synthesis and biological evaluation of artemisinin derivatives containing fluorine atoms as anticancer agents” (Bioorg Med Chem Lett, 2018):

Experiments:
Assay type in all cases: functional
MCF7 [1] = assay: Cell cycle arrest in human MCF7 cells assessed as accumulation at S phase at 2.5 uM after 48 hrs by propidium iodide staining based flow cytometry (reference value: 41.55%)
MCF7 [2] = assay: Cell cycle arrest in human MCF7 cells assessed as accumulation at G2 phase at 1 uM after 48 hrs by propidium iodide staining based flow cytometry (reference value: 13.24%)
MCF7 [3] = assay: Cell cycle arrest in human MCF7 cells assessed as accumulation at G1 phase at 1 uM after 48 hrs by propidium iodide staining based flow cytometry (reference value: 45.21%)
MCF7 [4] = assay: Induction of apoptosis in human MCF7 cells assessed as early apoptotic cells at 2.5 uM after 48 hrs by Annexin-V FITC/propidium iodide staining based flow cytometry (reference value: 0.50%)
MCF7 [5] = assay: Induction of apoptosis in human MCF7 cells assessed as late apoptotic cells at 1 uM after 48 hrs by Annexin-V FITC/propidium iodide staining based flow cytometry (reference value: 6.22%)
MCF7 [6] = assay: Induction of apoptosis in human MCF7 cells assessed as viable cells at 1 uM after 48 hrs by Annexin-V FITC/propidium iodide staining based flow cytometry (reference value: 88.59%); settings: MCF7, 48 h, read-out: Activity
MCF7 [7] = assay: Cell cycle arrest in human MCF7 cells assessed as accumulation at G1 phase at 10 uM after 48 hrs by propidium iodide staining based flow cytometry (reference value: 45.21%)
MCF7 [8] = assay: Induction of apoptosis in human MCF7 cells assessed as necrotic cells at 5 uM after 48 hrs by Annexin-V FITC/propidium iodide staining based flow cytometry (reference value: 4.69%)
MCF7 [9] = assay: Cell cycle arrest in human MCF7 cells assessed as accumulation at G2 phase at 10 uM after 48 hrs by propidium iodide staining based flow cytometry (reference value: 13.24%)
MCF7 [10] = assay: Induction of apoptosis in human MCF7 cells assessed as viable cells at 10 uM after 48 hrs by Annexin-V FITC/propidium iodide staining based flow cytometry (reference value: 88.59%); settings: MCF7, 48 h, read-out: Activity

## C[C@H]1[C@H](N2CCN(C(=O)Nc3ccc(OC(F)(F)F)cc3)CC2)O[C@@H]2O[C@@]3(C)CC[C@H]4[C@H](C)CC[C@@H]1[C@@]24OO3
MCF7 [1]
  Activity: 26.36%
MCF7 [2]
  Activity: 10.09%
MCF7 [3]
  Activity: 56.57%
MCF7 [4]
  Activity: 0.66%
MCF7 [5]
  Activity: 7.01%
MCF7 [6]
  viability at 1 µM: 84.4%
MCF7 [7]
  Activity: 83.5%
MCF7 [8]
  Activity: 21.51%
MCF7 [9]
  Activity: 7.3%
MCF7 [10]
  viability at 10 µM: 28.7%
